Measured values as given in patent US20250017841A1, “COMPOUND CONTAINING ASCORBIC ACID DERIVATIVE” (DR'S CHOICE CO., LTD., priority 2021, published 2025).
Counter-ions that a name gives are not always drawn.

Experiments:
Format in all cases: physicochemical
[1] = Example 1: degree of browning (chromaticity) on storage with added glycine; conditions: 1.5% solution, room temperature
Description: (Effect of addition of ascorbic acid 2-glucoside arginine salt on change in degree of browning (chromaticity) of ascorbic acid by addition of amino acid) 100 ml of water was taken to dissolve 1.5% of ascorbic acid (ASA), and the solution was adjusted to pH 5.0 with a 1M of sodium hydroxide solution to obtain a test solution. Ascorbic acid 2-glucoside arginine salt (ASA2-G⋅Arg) is used as a test solution by dissolving 1.5% of the product of Production Example 1 in 100 ml of water. To each test solution, 0.2% glycine was added and dissolved to prepare a solution, and the solution was stored (at room temperature) for 20 months. This test solution was collected every designated month, the absorption spectrum (wavelength: 480 nm) was measured, the degree of browning (chromaticity) was evaluated, and the results are shown in FIG. 3.
At time 0, the initial state immediately after the preparation was visually observed. In the other designated months, a spectrophotometer (absorption spectrum: wavelength 480 nm) was used for the measurement. In the case of ascorbic acid, browning started to occur at 4 months, transparency was visually observed, and light brown color remarkably appeared at 14 months. Meanwhile, in the ASA2-G⋅Arg added system, the initial state was confirmed.

[2] = Example 2: degree of browning (chromaticity) on storage with added amino acid mixture; conditions: 4% solution, room temperature
Description: 4% of ascorbic acid (ASA) is dissolved in 200 ml of water, and the solution is adjusted to pH 5.0 with a 1M sodium hydroxide solution to obtain a test solution. Ascorbic acid 2-glucoside lysine salt (ASA2-G⋅Lys) (Production Example 2) is dissolved in the same manner by 4% to prepare a test solution. An amino acid mixture (histidine 1.5%, alanine 1.28, leucine 2.6%) was added to and dissolved in each test solution, and the solution was stored (at room temperature) for 20 months. Each test solution was collected every designated month, the absorption spectrum (wavelength: 480 nm) was measured, the degree of browning (chromaticity) was evaluated, and the results are shown in FIG. 4.

[3] = Test system: browning of ascorbic acid caused by addition of an amino acid; conditions: 10 days after production
Description: For a reaction solution of ascorbic acid (1%) and amino acid (0.12%), the difference in degree of browning (chromaticity) based on the type of amino acid was examined for a 10 mM of phosphate citrate buffer solution pH 7.0. • Measurement wavelength: 480 nm, measurement time: 10 days after production

Row | time at which browning started to occur ([1]; pH 5.0, 0.2% glycine) [months] | time at which light brown color remarkably appeared ([1]; pH 5.0, 0.2% glycine) [months] | degree of browning (chromaticity) ([3]; ascorbic acid 1% + amino acid 0.12% (glycine, histidine, lysine or alanine), 10 mM phosphate citrate buffer pH 7.0, 480 nm) | degree of browning ([3]; ascorbic acid 1% + glycine or histidine 0.12%, pH 7.0, 480 nm) | time after which browning appeared ([2]; pH 5.0, amino acid mixture (histidine, alanine, leucine)) [months] | SMILES | appearance (transparency), visual observation ([1]; 0.2% glycine, 20 months) | absorbance (Abs) in the absorption spectrum ([1]; 480 nm, 0.2% glycine, 20 months) | appearance (color) ([2]; amino acid mixture, 20 months) | absorbance (Abs) of the absorption spectrum ([2]; 480 nm, amino acid mixture, 20 months)
1 |  |  |  |  |  | O=C1OC([C@@H](O)CO)C(O)=C1OC1O[C@H](CO)[C@@H](O)[C@H](O)[C@H]1O (stereo partly shown) [ASA2-G⋅Arg, ascorbic acid 2-glucoside arginine salt] | initial state | 0.01 |  | 
2 |  |  |  |  |  | O=C1OC([C@@H](O)CO)C(O)=C1OC1O[C@H](CO)[C@@H](O)[C@H](O)[C@H]1O (stereo partly shown) [ASA2-G⋅Lys, ascorbic acid 2-glucoside lysine salt] |  |  | extremely light reddish brown color | 0.017
3 | 4 | 14 | high | remarkable | 4 | O=C1O[C@H]([C@@H](O)CO)C(O)=C1O [ascorbic acid, (R)-3,4-dihydroxy-5-((S)-1,2-dihydroxyethyl) furan-2 (5H)-one] |  |  | reddish brown color | 
